Source: patent US20120101093A1, “SUBSTITUTED IMIDAZO[1,2-A]PYRIDINE DERIVATIVES, PHARMACEUTICAL COMPOSITIONS, AND METHODS OF USE AS BETA-SECRETASE INHIBITORS” (HIGH POINT PHARMACEUTICALS, LLC, priority 2009, published 2012)

What was measured:
BACE-1 enzyme = target: T1, BACE-1 enzyme (Homo sapiens, UniProt P56817); test: BACE Fluorescence Resonance Energy Transfer (FRET) Assay; type: biochemical; conditions: pH 4-4.5, 30 min pre-incubation, about 1.5 hours reaction
T1 construct: purchased R & D Systems 931AS
T1 sequence (P56817 46-457 limits assumed): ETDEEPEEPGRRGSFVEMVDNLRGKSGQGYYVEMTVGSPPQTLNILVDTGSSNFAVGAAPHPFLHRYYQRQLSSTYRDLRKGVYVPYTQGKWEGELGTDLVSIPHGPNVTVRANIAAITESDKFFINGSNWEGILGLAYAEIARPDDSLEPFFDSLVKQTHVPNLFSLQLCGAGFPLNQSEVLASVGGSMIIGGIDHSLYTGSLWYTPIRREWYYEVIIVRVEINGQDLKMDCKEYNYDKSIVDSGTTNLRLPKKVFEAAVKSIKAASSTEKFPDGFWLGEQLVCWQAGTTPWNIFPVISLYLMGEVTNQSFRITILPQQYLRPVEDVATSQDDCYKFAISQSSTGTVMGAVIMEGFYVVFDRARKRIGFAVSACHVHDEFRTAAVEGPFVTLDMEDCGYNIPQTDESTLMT
Outline: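 BACE-1 enzyme pre-incubated 30 min with compound in 7.5% DMSO in 50 mM sodium acetate pH 4-4.5, 0.01% CHAPS, 0.0125% Triton X-100, 0.006% EDTA. Rhodamine/quencher peptide substrate added; ~1.5 h at room temperature, fluorescence read at 540/585 nm. IC50 or percent inhibition at one concentration.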

[1] = system: Aβ1-40 secreted from HEK293 cells stably expressing wildtype human APP695 protein (HEK-APPwt cells); test: Aβ Cell Based Assay (Aβ1-40 secretion, ELISA); conditions: Homo sapiens, HEK293, 6 h, 6 hours incubation, reduction of Aβ1-40 secretion
Description: Aβ Cell Based Assay Procedure
In the following assay, the proteolytic activity of BACE in cells exposed to varying concentrations of a compound of interest is measured by observing the amount of Aβ1-40 secreted from HEK293 cells (Human Embryonic Kidney epithelial cell line) stably expressing wildtype human APP695 protein (HEK-APPwt cells).
HEK-APPwt cells were grown in high glucose DMEM (Dulbecco's Modified Eagles Medium SIGMA Cat.# D5796) supplemented with 25 mM HEPES (4-(2-hydroxyethyl)-1-piperazineethanesulfonic acid) (pH 7.4) (Invitrogen Cat.# 15630-114), 0.1 mM NEAA (Non-essential Amino Acids) (BioWhittaker Cat. #13-114E), 10% fetal bovine serum (SIGMA Cat. #F4135) and 250 μg/mL hygromycin (Invitrogen Cat. #10687-010) in T-225 flasks at 37° C. with 5% CO2 and humidity control.
Test compounds were initially prepared in DMSO and diluted with DMEM media containing 2% FBS (Fetal bovine serum). Ten standard compound solutions were prepared having a range of concentrations. The standard compound solutions were used to determine the EC50 of the test compound. The range of concentrations chosen may depend on the compound's predicted potency.
To prepare the cells for the assay, a flask containing HEK-APPwt cells were trypsinized briefly (1 mL trypsin), and once the cells detached, 4 mL of 10% FBS-DMEM was added to the flask. The detached cells were centrifuged at 900 rpm for 5 min to form a pellet.
The HEK-APPwt cell pellet was re-suspended with 10 mL DMEM media containing 2% FBS. 80 μL of the cell suspension was added to each well of a 96-well cell culture plate to give 100×10^4cells/ml. 10 μL of a standard compound solution was added to each well of the 96-well cell culture plate followed by 10 μL of Alamar blue solution. The cells were incubated at 37° C. in a 5% CO2 incubator for 6 hours.
At the end of the incubation, the plates were removed from incubator, and the supernatant was collected. A≈1-40 concentration in the medium was measured by using a commercial Aβ1-X ELISA kit (IBL, Japan Cat. #27729). Briefly, the ELISA plates were coated with an anti-human AO (N)(82E1) mouse IgG monoclonal antibody. A horseradish peroxidase conjugated anti-human Aβ11-28 mouse IgG monoclonal antibody was used for detection. The cell culture supernatant was diluted with EIA buffer +protease inhibitors (kit buffer containing protease inhibitors (1 mL PI/30 mL buffer)). A 100 μL aliquot of the diluted supernatant was added to each well of the ELISA plate and incubated for 6 hrs at 4° C. The ELISA plate was washed 8 times with phosphate buffered saline (PBS) containing 0.05% Tween 20.
A 100 μL of detection antibody was then added and incubated for 1 hour at 4° C. The plate was washed 8 times with PBS buffer containing 0.05% Tween 20 followed by addition of 100 μL of the chromogen tetramethylbenzidine (TMB). The plate was incubated in the dark at room temperature for about 30 min and a stop solution (1N H2SO4) was added.
The intensity of the color developed was measured at 450 nm. The optical density at 450 nm (OD450) is proportional to the concentration of human Aβ1-40 secreted by the cell. As a reference, N-[N-(3,5-difluorophenacetyl-L-alanyl)]-S-phenylglycine t-butyl ester (DAPT, a γ-secretase inhibitor) was used to indicate 100% inhibition of BACE activity. Thus, the assay measures the ability of a compound of interest to reduce Aβ1-40 secretion. For select compounds, compound potency is reported in Table 3 as the EC50 by calculating the percent inhibition at all concentration levels and the data were fit with non-linear curve fitting algorithm using GraphPad Prism.

Cc1cccn2cc(C(=O)Nc3nc4cc(-c5cccc(OC(F)(F)F)c5)ccc4[nH]3)nc12 [Example 28, 8-Methyl-imidazo[1,2-a]pyridine-2-carboxylic acid [5-(3-trifluoromethoxy-phenyl)-1H-benzoimidazol-2-yl]-amide]
IC50 (BACE-1 enzyme): 0.32 µM
EC50 [1]: 2.13 µM

Cc1cccn2cc(C(=O)Nc3nc4cc(-c5cccc(C(F)(F)F)c5)ccc4[nH]3)nc12 [Example 32, 8-Methyl-imidazo[1,2-a]pyridine-2-carboxylic acid [5-(3-trifluoromethyl-phenyl)-1H-benzoimidazol-2-yl]-amide]
IC50 (BACE-1 enzyme): 0.52 µM
EC50 [1]: 1.36 µM

CCOc1cccc(-c2ccc3[nH]c(NC(=O)c4cn5c(C)cccc5n4)nc3c2)c1 [Example 35, 5-Methyl-imidazo[1,2-a]pyridine-2-carboxylic acid [5-(3-ethoxy-phenyl)-1H-benzoimidazol-2-yl]-amide]
IC50 (BACE-1 enzyme): 0.82 µM
EC50 [1]: 2.3 µM

Cc1cccc2nc(C(=O)Nc3nc4cc(OCc5ccccc5C(F)(F)F)ccc4[nH]3)cn12 [Example 42, 5-Methyl-imidazo[1,2-a]pyridine-2-carboxylic acid [5-(2-trifluoromethyl-benzyloxy)-1H-benzoimidazol-2-yl]-amide]
IC50 (BACE-1 enzyme): 0.38 µM
EC50 [1]: 3.45 µM

Cc1cccc2nc(C(=O)Nc3nc4cc(OCc5cc(F)cc(C(F)(F)F)c5)ccc4[nH]3)cn12 [Example 43, 5-Methyl-imidazo[1,2-a]pyridine-2-carboxylic acid [5-(3-fluoro-5-trifluoromethyl-benzyloxy)-1H-benzoimidazol-2-yl]-amide]
IC50 (BACE-1 enzyme): 0.3 µM
EC50 [1]: 0.58 µM

Cc1cccc2nc(C(=O)Nc3nc4cc(-c5cccc(OC(F)(F)F)c5)ccc4[nH]3)cn12 [Example 46, 5-Methyl-imidazo[1,2-a]pyridine-2-carboxylic acid [5-(3-trifluoromethoxy-phenyl)-1H-benzoimidazol-2-yl]-amide]
IC50 (BACE-1 enzyme): 0.26 µM
EC50 [1]: 0.63 µM

Cc1cccc2nc(C(=O)Nc3nc4cc(-c5ccc(Cl)c(C(F)(F)F)c5)ccc4[nH]3)cn12 [Example 47, 5-Methyl-imidazo[1,2-a]pyridine-2-carboxylic acid [5-(4-chloro-3-trifluoromethyl-phenyl)-1H-benzoimidazol-2-yl]-amide]
IC50 (BACE-1 enzyme): 0.42 µM
EC50 [1]: 0.08 µM

Cc1cccc2nc(C(=O)Nc3nc4cc(-c5ccc(F)c(C(F)(F)F)c5)ccc4[nH]3)cn12 [Example 48, 5-Methyl-imidazo[1,2-a]pyridine-2-carboxylic acid [5-(4-fluoro-3-trifluoromethyl-phenyl)-1H-benzoimidazol-2-yl]-amide]
IC50 (BACE-1 enzyme): 0.49 µM
EC50 [1]: 0.18 µM

O=C(Nc1nc2cc(OCc3ccc(C(F)(F)F)cc3)ccc2[nH]1)c1cn2c(C(F)(F)F)cccc2n1 [Example 49, 5-Trifluoromethyl-imidazo[1,2-a]pyridine-2-carboxylic acid [5-(4-trifluoromethyl-benzyloxy)-1H-benzoimidazol-2-yl]-amide]
IC50 (BACE-1 enzyme): 0.17 µM
EC50 [1]: 8.76 µM

Cc1cccn2cc(C(=O)Nc3nc4cc(-c5ccc(C(F)(F)F)cc5)ccc4[nH]3)nc12 [Example 50, 8-Methyl-imidazo[1,2-a]pyridine-2-carboxylic acid [5-(4-trifluoromethyl-phenyl)-1H-benzoimidazol-2-yl]-amide]
IC50 (BACE-1 enzyme): 0.32 µM
EC50 [1]: 4.41 µM

Cc1cccn2cc(C(=O)Nc3nc4cc(-c5cccc(Cl)c5)ccc4[nH]3)nc12 [Example 51, 8-Methyl-imidazo[1,2-a]pyridine-2-carboxylic acid [5-(3-chloro-phenyl)-1H-benzoimidazol-2-yl]-amide]
IC50 (BACE-1 enzyme): 0.96 µM
EC50 [1]: 1.84 µM

O=C(Nc1nc2cc(OCc3ccc(C(F)(F)F)cc3)ccc2[nH]1)c1cn2cc(-c3ccccc3)ccc2n1 [Example 52, 6-Phenyl-imidazo[1,2-a]pyridine-2-carboxylic acid [5-(4-trifluoromethyl-benzyloxy)-1H-benzoimidazol-2-yl]-amide]
IC50 (BACE-1 enzyme): 5.28 µM
EC50 [1]: 0.51 µM

Cc1cccc2nc(C(=O)Nc3nc4cc(-c5cccc(C(F)(F)F)c5F)ccc4[nH]3)cn12 [Example 53, 5-Methyl-imidazo[1,2-a]pyridine-2-carboxylic acid [5-(2-fluoro-3-trifluoromethyl-phenyl)-1H-benzoimidazol-2-yl]-amide]
IC50 (BACE-1 enzyme): 0.26 µM
EC50 [1]: 0.23 µM

COc1cc(-c2ccc3[nH]c(NC(=O)c4cn5c(C)cccc5n4)nc3c2)cc(C(F)(F)F)c1 [Example 54, 5-Methyl-imidazo[1,2-a]pyridine-2-carboxylic acid [5-(3-methoxy-5-trifluoromethyl-phenyl)-1H-benzoimidazol-2-yl]-amide]
IC50 (BACE-1 enzyme): 0.39 µM
EC50 [1]: 0.98 µM

O=C(Nc1nc2cc(-c3ccc(F)c(C(F)(F)F)c3)ccc2[nH]1)c1cn2c(C(F)(F)F)cccc2n1 [Example 55, 5-Trifluoromethyl-imidazo[1,2-a]pyridine-2-carboxylic acid [5-(4-fluoro-3-trifluoromethyl-phenyl)-1H-benzoimidazol-2-yl]-amide]
IC50 (BACE-1 enzyme): 0.26 µM
EC50 [1]: 2.36 µM

Cc1cccc2nc(C(=O)Nc3nc4ccc(-c5cc(F)cc(Cl)c5)cc4[nH]3)cn12 [Example 56, 5-Methyl-imidazo[1,2-a]pyridine-2-carboxylic acid [6-(3-chloro-5-fluoro-phenyl)-1H-benzoimidazol-2-yl]-amide]
IC50 (BACE-1 enzyme): 0.28 µM
EC50 [1]: 0.24 µM

O=C(Nc1nc2cc(-c3ccc(F)c(C(F)(F)F)c3)ccc2[nH]1)c1cn2c(F)cccc2n1 [Example 58, 5-Fluoro-imidazo[1,2-a]pyridine-2-carboxylic acid [5-(4-fluoro-3-trifluoromethyl-phenyl)-1H-benzoimidazol-2-yl]-amide]
IC50 (BACE-1 enzyme): 0.76 µM
EC50 [1]: 0.4 µM

Cc1ccc2nc(C(=O)Nc3nc4cc(-c5cccc(C(F)(F)F)c5)ccc4[nH]3)cn2c1 [Example 59, 6-Methyl-imidazo[1,2-a]pyridine-2-carboxylic acid [5-(3-trifluoromethyl-phenyl)-1H-benzoimidazol-2-yl]-amide]
IC50 (BACE-1 enzyme): 0.41 µM
EC50 [1]: 3.16 µM

Cc1cccc2nc(C(=O)Nc3nc4cc(/C=C/c5ccc(C(F)(F)F)cc5)ccc4[nH]3)cn12 [Example 61, 5-Methyl-imidazo[1,2-a]pyridine-2-carboxylic acid {5-[(E)-2-(4-trifluoromethyl-phenyl)-vinyl]-1H-benzoimidazol-2-yl}-amide]
IC50 (BACE-1 enzyme): 0.22 µM
EC50 [1]: 0.28 µM

Cc1cccc2nc(C(=O)Nc3nc4cc(CCc5ccc(C(F)(F)F)cc5)ccc4[nH]3)cn12 [Example 62, 5-Methyl-imidazo[1,2-a]pyridine-2-carboxylic acid {5-[2-(4-trifluoromethyl-phenyl)-ethyl]-1H-benzoimidazol-2-yl}-amide]
IC50 (BACE-1 enzyme): 0.4 µM
EC50 [1]: 0.87 µM

Cc1cccc2nc(C(=O)Nc3nc4cc(-c5ccc(F)c(F)c5)ccc4[nH]3)cn12 [Example 63, 5-Methyl-imidazo[1,2-a]pyridine-2-carboxylic acid [5-(3,4-difluoro-phenyl)-1H-benzoimidazol-2-yl]-amide]
IC50 (BACE-1 enzyme): 1.15 µM
EC50 [1]: 1.32 µM

Cc1cccc2nc(C(=O)Nc3nc4cc(-c5ccc(F)c(Cl)c5)ccc4[nH]3)cn12 [Example 64, 5-Methyl-imidazo[1,2-a]pyridine-2-carboxylic acid [5-(3-chloro-4-fluoro-phenyl)-1H-benzoimidazol-2-yl]-amide]
IC50 (BACE-1 enzyme): 0.31 µM
EC50 [1]: 0.14 µM
